The record followed here is PubChem BioAssay (NCI).

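Five compound concentrations were applied to cells in 96-well plates for 48 hours; endpoints were derived by simple linear interpolation of the resulting dose-response curve. At the GI50, growth is halved. TGI denotes the concentration required for complete inhibition of growth.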 A value given as a limit tells only on which side of the number the result lay.

Common to all, as to experiment: NCI anticancer screen, dose series, 48 h
Assay [1] relates to UACC-257 melanoma.
For assay [2], the system named is UO-31 renal.
In assay [3] the test system is COLO 205 colon.
The subject of assay [4] is SK-MEL-5 melanoma.
Assay [5] has as its system SK-MEL-2 melanoma.
Assay [6] concerns LOX IMVI melanoma.
In assay [7] the test system is IGROV1 ovarian.
Assay [8] has as its system MALME-3M melanoma.
Assay [9] relates to U251 CNS.
Assay [10] has as its system SK-OV-3 ovarian.

As for `COC1CCC(OC)C(c2nc3sccn3c2/C=N/N=C(N)N)C1` (stereo not given), the GI50 was 5.61 µM in assay [1]; over 67.5 µM in assay [2]; 25.3 µM in assay [3]; 20.2 µM in assay [4]; 25.7 µM in [5]; 28.5 µM in assay [6]. Moreover, the GI50 is 50 µM in assay [7], 1.7 µM in assay [8], 38.7 µM in [9] and 47.1 µM in [10]. Moreover, the TGI in assay [1] was 44.1 µM; in [2], over 100 µM; in assay [3], over 63.7 µM; in assay [4], 54.3 µM; in [5], over 62.4 µM; in [6] it was 67.4 µM. Further, the TGI in [7] was over 100 µM; in assay [8] it was 23.8 µM; in assay [9], 73.4 µM; in [10], over 100 µM.
`CC(C)C(Br)C(=O)NCC(=O)O` (stereo not given): the TGI in assay [1], in assay [2], in [3], in assay [4], in [5] and in [6] was over 100 µM each time. Moreover, the TGI in assay [7], in assay [8], in [9] and in assay [10] was over 100 µM each time.
As for `Nc1ccccc1SC(/C=C/NNC1=NC(c2ccccc2)C(c2ccccc2)=NN1)c1ccccc1` (stereo not given), the TGI is 28.1 µM in assay [1]; 18.4 µM in [2]; 29 µM in assay [3]; 26.8 µM in [4]; 33 µM in [5]; 27.1 µM in assay [6]. Besides, the TGI turned out to be 32.5 µM in [7], 30.1 µM in [8], 28.9 µM in assay [9] and 44.4 µM in assay [10].
As for `OC[C@H]1N[C@H](CO)[C@@H](O)[C@H]1O`, the TGI in [1], in assay [2], in assay [3], in assay [4], in assay [5] and in assay [6] was over 100 µM in each case. Also, the TGI in [7], in [8], in assay [9] and in assay [10] was over 100 µM in each case.
Regarding `Cc1cccc(C=NC23CC4CC(CC(C4)C2)C3)c1`, the TGI in assay [1], in [2], in [3], in [4], in [5] and in assay [6] was over 100 µM throughout. Besides, the TGI in [7], in assay [8], in assay [9] and in assay [10] was over 100 µM in each case.
Turning to `CCNC(=O)COc1ccc(Cl)c(C)c1`, the TGI in assay [1], in assay [2], in [3], in assay [4], in [5] and in assay [6] was over 100 µM each time. For the same compound, the TGI in assay [7], in [8], in [9] and in [10] was over 100 µM each time.
As for `Cn1cc(-c2csc(-c3ccc(Cl)cc3)n2)c2cccnc21`, the GI50 in assay [1] is 19.9 µM; in assay [2], 13.6 µM; in assay [3], 13.7 µM; in assay [4], 13.9 µM; in [5], 17.4 µM; in assay [6], 12.4 µM. For the same compound, the GI50 in assay [7] was 22.3 µM; in assay [8] it was 14.8 µM; in assay [9] it was 14.6 µM; in assay [10] it was 15.9 µM. The TGI is 43.5 µM in assay [1]; 38.6 µM in [2]; 26.6 µM in [3]; 27.6 µM in assay [4]; 42.5 µM in assay [5]; 24.9 µM in assay [6]. The TGI in [7] is over 100 µM; in assay [8] it was 42.2 µM; in assay [9] it was 29.4 µM; in assay [10], 39.2 µM.
Regarding `COc1ccc(C(=O)Cn2c(C(=O)c3ccc(Cl)cc3)nc(-c3ccccc3)c2-c2ccccc2)cc1`, the GI50 in [1], in [2], in [3], in assay [4], in assay [5] and in assay [6] was over 100 µM in each case. For the same compound, the GI50 is 67.1 µM in [7], over 100 µM in assay [8], 73 µM in assay [9] and 60.1 µM in assay [10]. The TGI in assay [1], in assay [2], in assay [3], in [4], in assay [5] and in assay [6] was over 100 µM each time. Besides, the TGI in assay [7], in assay [8], in assay [9] and in assay [10] was over 100 µM throughout.
Regarding `N#C/C(=C/C=C/c1cccc(Cl)c1)S(=O)c1ccccc1` (stereo not given), the GI50 in [1] is 1.64 µM; in [2], 0.358 µM; in assay [3], 0.386 µM; in [4], 1.79 µM; in assay [5], 1.62 µM; in assay [6], 0.175 µM. Moreover, the GI50 in assay [7] is 0.399 µM; in assay [8], 1.05 µM; in assay [9], 0.361 µM; in assay [10] it was 2.21 µM. Also, the TGI was 3.16 µM in [1]; 1.71 µM in [2]; 1.31 µM in assay [3]; 3.61 µM in [4]; 3.66 µM in assay [5]; 0.343 µM in [6]. Moreover, the TGI in assay [7] amounted to 1.71 µM; in assay [8] it was 2.69 µM; in [9], 1.31 µM; in [10] it was 10.2 µM.
